# Key:
# ependymoblastoma (EM) = experiment: Anti-cancerous activity in mice, ependymoblastoma (EM); type: in vivo, mouse
# From the text: (§1) An extensive research program carried out by the National Cancer Institute, Bethesda, Md., and the European Organization for Research on the Treatment of Cancer, Brussels, Belgium, has shown that when compared to PDD, compounds according to this invention, particularly compounds having the following formulas display a high therapeutic activity against a great number of different mammalian types of tumor, such as P 388 lymphocytic leukemia (PS), L-1210 lymphoid leukemia (LE), ependymoblastoma (EM), B 16 melanocarcinoma (B1) and a line of L-1210 leukemia resistant to cis-PDD (LE/cis-PDD): [drawing 9]
# (§2) More detailed information concerning the testing procedure and their interpretation are contained in Instruction 14, Screening Data Summary, Interpretation and Outline of Current Screen, Drug Evaluation Branch, National Cancer Institute, Bethesda, Md., 20014 (1977) which is incorporated herein by reference.
# (§3) *Period of survival is the ratio of survival times of the treated mice (T
# (§4) to untreated mice (C); the therapeutic activity is significant at T/C
# (§5) ≥ 125. The figures include dying mice only. A cure is defined as a
# (§6) mouse free of tumors 45 days after injection, as determined by visual
# [1] = system: L-1210 lymphoid leukemia (LE); experiment: Anti-cancerous activity in mice, L-1210 lymphoid leukemia (LE); type: in vivo, mouse
# From the text: as §1, §2, §3, §4, §5, §6
# (§7) **For Formula 12-cis PDD the mice were injected with 10^6 L1210
# (§8) ascites cells. One I.P. injection of the test compound was given to each
# [2] = system: B 16 melanocarcinoma (B1); experiment: Anti-cancerous activity in mice, B 16 melanocarcinoma (B1); type: in vivo, mouse; details: B16, B6 D2 (BDF) mice
# From the text: as §1, §2, §3, §4, §5, §6
# [3] = Lethal doses LD10 / LD50 given with the BUN test in the rat
# [4] = system: P 388 lymphocytic leukemia (PS); experiment: Anti-cancerous activity in mice, P 388 lymphocytic leukemia (PS); type: in vivo, mouse; details: CD2 F1 mice
# From the text: as §1, §2, §3, §4, §5, §6
# [5] = system: L-1210 leukemia resistant to cis-PDD (LE/cis-PDD); experiment: Anti-cancerous activity in mice, L-1210 leukemia resistant to cis-PDD (LE/cis-PDD); type: in vivo, mouse; details: for cures (mice free of tumors 45 days after injection) / T/C (period of survival, treated/untreated): LE/cis PDD, BDF1 mice; for cures (mice free of tumors 45 days after injection): of six mice; for T/C (period of survival, treated/untreated): one I.P. injection; for effectiveness against the cis-PDD resistant line of L-1210 versus the parent line: mice
# From the text: as §1, §2, §3, §4, §5, §6, §7, §8
# [6] = literature; cited from earlier work
# [7] = literature; cited from earlier work; remark: listed apart in the source
# mammalian types of tumor = experiment: Therapeutic activity against mammalian tumors (NCI / EORTC program); type: in vivo, mouse; details: mice; Table A experiments
# From the text: as §1, §2
# [8] = Urea-nitrogen in the blood after administering platinum complexes (in the rat); type: in vivo
# Method: Percentage of urea-nitrogen in the blood after
# administering platinum complexes (in the rat).
# Both at doses corresponding with the LD10 -amount and at those corresponding with the LD50 -amount the urea-nitrogen contents in the blood are identical to the control values. BUN values≥30 mg% are generally considered indicative of drug-induced nephrotoxicity. […] In was found by means of a histological examination of rats after treatment with toxic doses of compounds of this invention, that these compounds display little or no kidney toxicity.
# cancer = details: literature, cited from earlier work
# [9] = CD2 F1 mice, 12.50 mg/kg per injection
# [10] = 6.25 mg/kg per injection, significant at T/C ≥ 125
# [11] = BDF1 mice, 50.00 mg/kg, one I.P. injection, 10^6 L1210 ascites cells
compound,measurement,setting,value
"NCC1(CN)CCCCC1.[Cl][Pt][Cl] [Formula 4, Cis-dichloro-1,1-di(aminomethyl)cyclohexane platinum(II)]","T/C (period of survival, treated/untreated)","ependymoblastoma (EM); C57BL/6 mice, 6.00 mg/kg per injection",126%
same,"T/C (period of survival, treated/untreated)","[1]; CD2 F1 mice, 3.12 mg/kg per injection",145%
same,"T/C (period of survival, treated/untreated)","[1]; CD2 F1 mice, 6.25 mg/kg per injection",180%
same,"T/C (period of survival, treated/untreated)",[1]; [9],234%
same,"T/C (period of survival, treated/untreated)",[2]; 1.50 mg/kg per injection,190%
same,"T/C (period of survival, treated/untreated)",[2]; 3.00 mg/kg per injection,208%
same,"T/C (period of survival, treated/untreated)",[2]; 6.00 mg/kg per injection,208%
same,LD10,[3],8 mg/kg
same,LD50,[3],15 mg/kg
same,"T/C (period of survival, treated/untreated)",[4]; 1.56 mg/kg per injection,153%
same,"T/C (period of survival, treated/untreated)",[4]; 3.12 mg/kg per injection,181%
same,"T/C (period of survival, treated/untreated)",[4]; [10],201%
"NCC1(CN)CCCCC1.O=C1[O][Pt][O]C(=O)C12CCCCC2 [Formula 7, Cis-cyclopentamethylene malonato-1,1-di(aminomethyl)cyclohexane platinum(II)]","T/C (period of survival, treated/untreated)","ependymoblastoma (EM); 57BL/6 mice, 6.25 mg/kg per injection",130%
same,"T/C (period of survival, treated/untreated)","ependymoblastoma (EM); 57BL/6 mice, 12.50 mg/kg per injection",163%
same,"T/C (period of survival, treated/untreated)","[1]; CD2 F1 mice, 80.00 mg/kg per injection",138%
same,"T/C (period of survival, treated/untreated)",[4]; [10],162%
same,"T/C (period of survival, treated/untreated)",[4]; 12.50 mg/kg per injection,177%
same,"T/C (period of survival, treated/untreated)",[4]; 25.00 mg/kg per injection,226%
"CCC(C)(CN)CN.[Cl][Pt][Cl] [Formula 8, Cis-dichloro-(2-methyl-2-ethyl)-1,3-propane diamine platinum (II)]","T/C (period of survival, treated/untreated)",[1]; [9],289%
"CCC(CC)(CN)CN.[Cl][Pt][Cl] [Formula 9, Cis-dichloro-2,2-diethyl-1,3-propane diamine platinum(II)]","T/C (period of survival, treated/untreated)",[1]; [9],323%
"NCC1(CN)CCCC1.[Cl][Pt][Cl] [Formula 10, Cis-dichloro-1,1-di(aminomethyl)cyclopentane platinum(II)]","T/C (period of survival, treated/untreated)",[1]; [9],148%
"NCC1(CN)CCCCC1.O=S(=O)([O-])[O-].[Pt+2] [Formula 11, Cis-1,1-di(aminomethyl)cyclohexane platinum(II) sulphate]","T/C (period of survival, treated/untreated)",[1]; [9],274%
"NCC1(CN)CCC1.[Cl-].[Cl-].[Pt+2] [Formula 12, Cis-dichloro-1,1-di(aminomethyl)cyclobutane platinum(II)]","T/C (period of survival, treated/untreated)","[1]; BDF1 mice, 15.00 mg/kg, one I.P. injection, 10^6 L1210 ascites cells",208%
"NCC(CN)(Cc1ccccc1)Cc1ccccc1.[Cl][Pt][Cl] [Formula 13, Cis-dichloro-2,2-dibenzyl-1,3-propane diamine platinum(II)]","T/C (period of survival, treated/untreated)",[1]; [11],135%
"CC(C)C(CN)(CN)C(C)C.[Cl-].[Cl-].[Pt+2] [Formula 14, Cis-dichloro-2,2-diisopropyl-1,3-propane diamine platinum(II)]","T/C (period of survival, treated/untreated)",[1]; [11],178%
"NCC1(CN)CCCCC1.O=C(O)c1ccc2c(c1)C(=O)[O][Pt][O]C2=O [Formula 15, Cis-4-carboxyphthalato-1,1-di(aminomethyl)-cyclohexane platinum (II)]","T/C (period of survival, treated/untreated)","[1]; BDF1 mice, 40.00 mg/kg, one I.P. injection, 10^6 L1210 ascites cells",200%
"NCC1(CN)CCCCC1.O=C(CCl)[O][Pt][O]C(=O)CCl [Formula 16, Cis-1,1-di(aminomethyl)-cyclohexane-bis(chloroacetato)platinum(II)]","T/C (period of survival, treated/untreated)","[1]; BDF1 mice, 6.00 mg/kg, one I.P. injection, 10^6 L1210 ascites cells",207%
"CCC(CC)(CN)CN.O=S(=O)([O-])[O-].[Pt+2] [Formula 17, Cis-2,2-diethyl-1,3-propanediamine platinum(II) sulphate]",cures (mice free of tumors 45 days after injection),[5]; 6.00 mg/kg,3/6
same,"T/C (period of survival, treated/untreated)",[5]; 6.00 mg/kg,> 500%
same,effectiveness against the cis-PDD resistant line of L-1210 versus the parent line,[5],even more effective against the cis-PDD resistant line of L-1210 than they are against the parent line of L-1210
same,"T/C (period of survival, treated/untreated)","[1]; BDF1 mice, 12.00 mg/kg, one I.P. injection, 10^6 L1210 ascites cells",200%
"NCC1(CN)CCCCC1.O=C([O-])CC(=O)[O-].[Pt+2] [Formula 18, Cis-1,1-di(aminomethyl)-cyclohexanemalonato platinum(II)]","T/C (period of survival, treated/untreated)",[5]; 16.00 mg/kg,230%
same,effectiveness against the cis-PDD resistant line of L-1210 versus the parent line,[5],even more effective against the cis-PDD resistant line of L-1210 than they are against the parent line of L-1210
same,cures (mice free of tumors 45 days after injection),"[1]; BDF1 mice, 64.00 mg/kg, of six mice",1/6
same,"T/C (period of survival, treated/untreated)","[1]; BDF1 mice, 64.00 mg/kg, one I.P. injection, dying mice only",200%
"NCC1(CN)CCCCC1.O=C1[O][Pt][O]C(=O)C1O [Formula 19, Cis-1,1-di(aminomethyl)cyclohexanehydroxymalonato platinum(II)]",cures (mice free of tumors 45 days after injection),[5]; 24.00 mg/kg,3/6
same,"T/C (period of survival, treated/untreated)",[5]; 24.00 mg/kg,> 500%
same,effectiveness against the cis-PDD resistant line of L-1210 versus the parent line,[5],even more effective against the cis-PDD resistant line of L-1210 than they are against the parent line of L-1210
same,"T/C (period of survival, treated/untreated)","[1]; BDF1 mice, 36.00 mg/kg, one I.P. injection, 10^6 L1210 ascites cells",246%
cis-dichlorobiscyclopentyl amine platinum(II),kidney toxicity,[6],only slightly toxic to the kidneys
same,spleen toxicity,[7],toxic to the spleen
cis-platinum diamine dichloride [PDD],complete cures,mammalian types of tumor,not observed
same,"T/C (period of survival, treated/untreated)",[5]; 4-8 mg/kg,106-121%
same,Percentage of urea-nitrogen in blood,"[8]; 3 mg/kg (LD10), 0 days after injection",10%
same,Percentage of urea-nitrogen in blood,"[8]; 3 mg/kg (LD10), 2 days after injection",13%
same,Percentage of urea-nitrogen in blood,"[8]; 3 mg/kg (LD10), 4 days after injection",52%
same,Percentage of urea-nitrogen in blood,"[8]; 7.6 mg/kg (LD50), 0 days after injection",10%
same,Percentage of urea-nitrogen in blood,"[8]; 7.6 mg/kg (LD50), 2 days after injection",78%
same,Percentage of urea-nitrogen in blood,"[8]; 7.6 mg/kg (LD50), 4 days after injection",148%
same,increase in the urea nitrogen content,"[8]; LD10 dose, 4 days after injection",about a quadruple increase
same,"T/C (period of survival, treated/untreated)","[1]; BDF1 mice, 8.00 mg/kg, one I.P. injection, 10^6 L1210 ascites cells",183%
same,therapeutic index,cancer,low therapeutic index
same,toxicity,cancer; treatment of cancer,Toxicity is a very serious drawback
same,"T/C (period of survival, treated/untreated)",[2]; 2.00 mg/kg per injection,197%
same,LD10,[3],3 mg/kg
same,LD50,[3],7.6 mg/kg

# Source: patent US4410544A, “Platinum-diamine complexes, a method for the preparation of a medicine using such a platinum-diamine complex for the treatment of malignant tumor in mice” (priority 1978, dated 1983)
